Results from patent US11241424B2, “Pharmaceutical formulations for sustained release of sebacoyl dinalbuphine ester” (LUMOSA THERAPEUTICS CO., LTD., priority 2015, dated 2022).
Where “and” joins values, the source holds several entries; their conditions need not be identical. Equal values may be shown once.

How the values were obtained:
[1] = Phase I clinical trial of F8 formulation (safety, tolerability, pharmacokinetics); conditions: for AUC0-inf / AUC0-t / Cmax / T1/2 / Tmax: plasma nalbuphine, mean
Protocol: It was designed to evaluate safety and local tolerability and assess the pharmacokinetics of SDE following single dose intramuscular injection. The study enrolled a total of 28 healthy male subjects. All subjects were randomized to 5 cohorts. Cohort 1 (N=4) was treated with single dose Nubain® 17 mg (0.85 mL) via intramuscular injection. Cohorts 2-5 (N=6) were either treated with placebo (N=2) or treated with single dose SDE (N=4) at 75 mg (1 mL), 100 mg (1.33 mL), 125 mg (1.67 mL), and 150 mg (2 mL), respectively.
Heparinized blood samples were obtained before and at various time points following single dose administration of study medication. […] The subsequent analysis of the data involved non-compartmental pharmacokinetics analysis, i.e., Cmax, Tmax, AUC0-t, AUC0-inf, and T1/2.

[2] = Solubility test of SDE in solvents and solvent systems (UPLC); assay type: physicochemical
Protocol: As used herein, the term “solubility” means the maximum amount of a solute (e.g., an active ingredient or a prodrug thereof) that can be dissolved in a given amount of a solvent at a particular temperature. Unless otherwise specified, the solubilities presented herein are at room temperature (e.g., 25-28° C.). The term “saturated concentration” refers to the concentration at which no more of a solute will dissolve in a solvent and additional amounts of solute will appear as a separate phase (e.g., as a precipitate).
Each of the solvent systems was prepared by mixing each component with the exact volume (pi) corresponding to the w/w % listed in Table 15. About 500 μl of each of the solvent systems was prepared and was vortexed for 3 minutes or more to fully mix each component. An appropriate amount of SDE was added into 250 μl of each of the solvent systems and the resulting mixtures were sonicated for 10 minutes. If the previously added SDE was completely dissolved, an additional 4-8 mg of SDE was added into the mixture and which was then sonicated for another 10 minutes. The step of adding 4-8 mg of SDE was repeated until the mixture was saturated to show undissolved SDE precipitates. All of the mixtures were sonicated for at least 30 minutes, and then centrifuged to collect the supernatants. The supernatants were treated with acetonitrile and then subjected to UPLC analysis.
Five groups of solvent systems containing 40% by weight of sesame oil were respectively prepared according to the method of Example 6 by using the compositions as listed in Table 17; and among them, five different alcohols (i.e., ethanol, 1-propanol, 2-propanol, 1-butanol, and tert-butanol) were used in the five groups. SDE was dissolved in each of the solvent systems till saturation by following the method of Example 6. The SDE concentrations in the supernatants collected from each of the samples (i.e. the saturated SDE concentration, or SDE solubility) were respectively determined by UPLC using the method of Example 6.

[3] = Bioavailability study of F8 formulation and Bain (whole blood nalbuphine); assay type: in vivo, human; conditions: mean, SDE 150 mg single IM as F8 formulation
Protocol: A total of twelve subjects completed the crossover study. […] There was a minimum 5-day washout period between period I and period II. In period I, the blood samples were drawn prior to the dosing, and 0.083, 0.25, 0.5, 1, 1.5, 2, 3, 4, 6, 8, 12, and 24 hours after dosing.

[4] = tested on: postoperative pain following hemorrhoidectomy; experiment: Phase 2/3 clinical study of F8 formulation; assay type: in vivo, human
Protocol: The subjects were divided into two groups, of which Group 1 (n=103) was treated with a single dose of intramuscular SDE 150 mg (2 mL), and Group 2 (n=106) was treated with a single dose of intramuscular placebo (2 mL). All subjects were given a single dose of SDE or placebo via intramuscular injection 24±12 hours before hemorrhoid surgery. The subjects were allowed to take rescue medication and monitored for 7 days after dosing. Statistical analyses were performed on the data to compare the two groups.
The primary efficacy endpoint was pain assessment calculated as the area under the curve of VAS pain intensity scores through 48 hours after surgery. The secondary efficacy endpoints included pain assessment measured with VAS; time from the end of operation to the first rescue medication dosing; the consumption of oral ketorolac. Pain intensity was assessed right before the first use of PCA ketorolac, and at 1±0.1, 2±0.1, 3±0.1, 4±0.25, 8±0.5, 12±0.5, 16±0.5, 20±0.5, 24±1, 28±1, 32±2, 36±2, 40±2, 44±2, 48±2 hours after the surgery, and was assessed during Days 3-7 in the morning and evening, as well as during special events such as bowel movements.
For the calculation of AUC, data were imputed with the use of the windowed worst observation carried forward plus last observation carried forward method. For subjects who used rescue medication for pain relief, their VAS scores recorded within the window of ketorolac medication (6 hours, which is one half-life of ketorolac) were replaced by the “worst” observation (i.e., the highest score before taking ketorolac), hereafter called “adjusted VAS scores.”
The AUC0-24 and AUC0-48 of the mean adjusted VAS scores of SDE and placebo groups were calculated by using the trapezoidal method and summarized in Table 10.

[5] = Plasma nalbuphine after subcutaneous nalbuphine in dogs; assay type: in vivo
[6] = after i.v. dosing in dogs; cited from earlier work
[7] = SDE 75 mg single IM as F8 formulation
[8] = SDE 100 mg single IM as F8 formulation
[9] = SDE 125 mg single IM as F8 formulation
[10] = SDE 150 mg single IM as F8 formulation
[11] = 48 hours post-operation, SDE 150 mg IM (F8)
[12] = mITT, SDE 150 mg IM (F8) 24±12 hours before hemorrhoid surgery
[13] = dog, plasma, subcutaneous, 0.5 mg/kg

O=C(CCCCCCCCC(=O)Oc1ccc2c3c1O[C@H]1[C@@H](O)CC[C@@]4(O)[C@@H](C2)N(CC2CCC2)CC[C@]314)Oc1ccc2c3c1O[C@H]1[C@@H](O)CC[C@@]4(O)[C@@H](C2)N(CC2CCC2)CC[C@]314 [SDE, sebacoyl dinalbuphine ester]
duration of action ([1]; cohort receiving 125 mg SDE, from plasma nalbuphine above 3 ng/mL): about 6.5 days | duration of action ([1]; cohort receiving 150 mg SDE, from plasma nalbuphine above 3 or 1 ng/mL): 6 to 12 days | tolerability ([1]; escalating single IM doses of SDE up to 150 mg): well tolerated | AUC0-inf [1, 7]: 692.27 ng·h/mL | AUC0-t [1, 7]: 647.84 ng·h/mL | Cmax [1, 7]: 5.45 ng/mL | T1/2 [1, 7]: 55.75 h | Tmax [1, 7]: 66 h | AUC0-inf [1, 8]: 936.17 ng·h/mL | AUC0-t [1, 8]: 811.34 ng·h/mL | Cmax [1, 8]: 5.65 ng/mL | T1/2 [1, 8]: 85.45 h | Tmax [1, 8]: 66 h | AUC0-inf [1, 9]: 1219.71 ng·h/mL | AUC0-t [1, 9]: 1047.45 ng·h/mL | Cmax [1, 9]: 7.31 ng/mL | T1/2 [1, 9]: 89.83 h | Tmax [1, 9]: 45 h | AUC0-inf [1, 10]: 1353.16 ng·h/mL | AUC0-t [1, 10]: 1214.98 ng·h/mL | Cmax [1, 10]: 9.81 ng/mL | T1/2 [1, 10]: 73.4 h | Tmax [1, 10]: 60 h | difference between SDE and placebo groups in number of AEs, subjects with AEs, severity and relatedness ([1]; single IM dose 75-150 mg): No significant difference | severity of adverse events (AEs) ([1]; single IM dose, healthy male subjects): mild | effect of C2-C4 alcohol on the solubility of SDE (FIG. 11) ([2]; 2.5-30% by weight of the alcohol in solvent system with 40% sesame oil): significantly increased | solubility of SDE in the formulations ([2]; 10% by weight of tert-Butanol replacing benzyl benzoate): about 210 mg/mL | increase of the solubility of SDE in the solvent systems ([2]; 10% of alkyl alcohol added): at least 30% | Solubility of SDE in the solvent ([2]; castor oil): about 13 mg/mL | Solubility of SDE in the solvent ([2]; cottonseed oil): about 6 mg/mL | solubility of SDE in ethanol, 1-propanol, or t-butanol ([2]; each alcohol alone): 10000 to 30000 µg/mL | solubility of SDE when added to the mixture of benzyl benzoate and sesame oil ([2]; weight ratio of benzyl benzoate to sesame oil about 1.1): about 70 mg/mL | solubility of SDE when added to the mixture of benzyl benzoate and sesame oil ([2]; weight ratio of benzyl benzoate to sesame oil about 1.5): about 150 mg/mL | solubility of SDE when added to the mixture of benzyl benzoate and sesame oil ([2]; weight ratio of benzyl benzoate to sesame oil about 2.3): about 200 mg/mL | solubility of SDE when added to the mixture of benzyl benzoate and sesame oil ([2]; weight ratio of benzyl benzoate to sesame oil about 9): greater than 300 mg/mL | solubility of SDE in the formulations ([2]; without alkyl alcohol): about 160 mg/mL | AUC0-inf [3]: 1832.0 ng·h/mL | AUC0-t [3]: 1687.4 ng·h/mL | Cmax [3]: 15.40 ng/mL | MRT [3]: 149.38 h | T1/2 [3]: 83.16 h | Tmax [3]: 64.00 h | AUC0-final of adjusted VAS scores, Mean ± SD ([4]; 0 hr to 7 days after hemorrhoid operation, mITT, SDE 150 mg IM (F8)): 630.79±350.90 | consumption of oral ketorolac, Mean [4, 11]: 51.36 mg | consumption of oral ketorolac, Median [4, 11]: 40.00 mg | time for the first use of post-operational analgesic, Mean (SD) ([4]; mITT, SDE 150 mg IM (F8)): 12.57 hour and 12.57 (1.68) hour | AUC0-24 of adjusted VAS pain intensity scores, Mean ± SD [4, 12]: 109.42 ± 55.04 | AUC0-48 of adjusted VAS pain intensity scores, Mean ± SD [4, 12]: 209.93±111.26 | adjusted VAS score compared with placebo ([4]; throughout the 7 days after the hemorrhoid operation): lower than the placebo group

Oc1ccc2c3c1O[C@H]1[C@@H](O)CC[C@@]4(O)[C@@H](C2)N(CC2CCC2)CC[C@]314 [nalbuphine]
concentration at 3 h [5, 13]: 9.9 ng/mL | concentration at 4 h [5, 13]: 5.2 ng/mL | effective plasma concentration of nalbuphine for analgesia in dog ([5]; inferred from 4 h plasma level and reported 4 h analgesia): about 5 ng/mL | elimination half-life of nalbuphine [6]: about 1.2 hour
